Assay results: ChEMBL document CHEMBL1201862, “PubChem BioAssay data set” (2004)
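Step 1: Grow cells in 96-well plates. Step 2: Expose to compound for 48 hours at 5 concentrations. Step 3: Interpolate endpoints linearly; if unreached, use highest concentration. GI50 = concentration required for 50% inhibition of growth.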 Active and inactive are the calls of the source. Cut-off read from the data, not from the text of the source: active = GI50 up to about 1.1 µM and inactive = higher.

Assays:
Test in all cases: inhibition of tumour cell growth, NCI panel, 48 h
786-0 = test system: 786-0
COLO 205 = test system: COLO 205
SNB-19 = test system: SNB-19
U-251 = test system: U-251
HCT-15 = test system: HCT-15
CAKI-1 = test system: CAKI-1
M14 = test system: M14
XF498 = test system: XF498
MOLT-4 = test system: MOLT-4
IGROV-1 = test system: IGROV-1
A549 = test system: A549
SN12C = test system: SN12C
EKVX = test system: EKVX
SF-295 = test system: SF-295
UACC-62 = test system: UACC-62
LOX IMVI = test system: LOX IMVI
T47D = test system: T47D
DU-145 = test system: DU-145
NCI/ADR-RES = test system: NCI/ADR-RES
PC-3 = test system: PC-3

SMILES	GI50 (786-0)	GI50 (COLO 205)	GI50 (SNB-19)	GI50 (U-251)	GI50 (HCT-15) [µM]	GI50 (CAKI-1)	GI50 (M14)	GI50 (XF498)	GI50 (MOLT-4)	GI50 (IGROV-1)	GI50 (A549)	GI50 (SN12C)	GI50 (EKVX)	GI50 (SF-295)	GI50 (UACC-62)	GI50 (LOX IMVI)	GI50 (T47D)	GI50 (DU-145)	GI50 (NCI/ADR-RES)	GI50 (PC-3)
COc1ccc([C@H]2CC(=O)NCCCCN2)cc1	> 100 µM (inactive)	> 100 µM (inactive)	> 100 µM (inactive)	> 100 µM (inactive)	> 100	> 100 µM (inactive)	> 100 µM (inactive)	> 100 µM (inactive)	> 100 µM (inactive)	> 100 µM (inactive)	> 100 µM (inactive)	> 100 µM (inactive)	> 100 µM (inactive)	> 100 µM (inactive)	> 100 µM (inactive)					
O=C(N/C(=C\c1ccc(Oc2ccc(Cl)c(Cl)c2)cc1)c1nc2ccccc2[nH]1)c1ccccc1	17.3 µM (inactive)	21.9 µM (inactive)	15.6 µM (inactive)	14.1 µM (inactive)	23.2	21 µM (inactive)	19.5 µM (inactive)	16.8 µM (inactive)	18.7 µM (inactive)	> 10 µM (inactive)	17.9 µM (inactive)	18.4 µM (inactive)	22 µM (inactive)	15.1 µM (inactive)	13.7 µM (inactive)					
N/N=C(\Cc1ccccc1)NN=C(N)N	> 100 µM (inactive)	> 100 µM (inactive)		> 100 µM (inactive)	74.8	> 100 µM (inactive)	> 100 µM (inactive)	> 100 µM (inactive)	47.1 µM (inactive)	> 100 µM (inactive)	> 100 µM (inactive)	> 100 µM (inactive)	> 100 µM (inactive)	> 100 µM (inactive)	> 100 µM (inactive)	> 100 µM (inactive)				
CN(C(=O)C12C3C4C1C1C2C3C41C(N)=O)C(C)(C)C (centres undefined)	> 100 µM (inactive)	> 100 µM (inactive)	> 100 µM (inactive)			> 100 µM (inactive)	> 100 µM (inactive)	> 100 µM (inactive)	> 100 µM (inactive)	> 100 µM (inactive)	> 100 µM (inactive)	> 100 µM (inactive)	> 100 µM (inactive)	> 100 µM (inactive)	> 100 µM (inactive)					
C/C(=N/OC(=O)c1cccc2c(=O)c3ccccc3[nH]c12)[C@H]1CC[C@H]2[C@@H]3CCC4=C/C(=N/OC(=O)c5cccc6c(=O)c7ccccc7[nH]c56)CC[C@]4(C)[C@H]3CC[C@]12C	18.5 µM (inactive)	15.8 µM (inactive)	18.2 µM (inactive)	15.8 µM (inactive)	14	21.2 µM (inactive)	14.6 µM (inactive)		10.4 µM (inactive)	14.4 µM (inactive)	25.6 µM (inactive)	14.7 µM (inactive)	10.6 µM (inactive)	16.8 µM (inactive)	14.1 µM (inactive)	12.9 µM (inactive)	14.5 µM (inactive)	22.7 µM (inactive)	20.4 µM (inactive)	10.5 µM (inactive)
Cc1ccc(NC(=O)CCC(CC(=O)C(C)(C)C)=NNC(=O)C(=O)NN)cc1C	> 100 µM (inactive)	> 100 µM (inactive)	> 100 µM (inactive)		> 100	> 100 µM (inactive)	> 100 µM (inactive)	64.4 µM (inactive)	> 100 µM (inactive)	> 100 µM (inactive)	> 100 µM (inactive)	> 100 µM (inactive)	> 100 µM (inactive)	> 100 µM (inactive)	> 100 µM (inactive)	> 100 µM (inactive)				
Cc1c(Cl)cc(C(C)(C)C)c(O)c1Cc1c(C)c(Cl)cc(C(C)(C)C)c1O	1.73 µM (inactive)	1.12 µM (active)	1.8 µM (inactive)	1.51 µM (inactive)	2.21	1.32 µM (inactive)	2.42 µM (inactive)		0.818 µM (active)	1.1 µM (active)	0.804 µM (active)	1.87 µM (inactive)	1.4 µM (inactive)	2.07 µM (inactive)	1.62 µM (inactive)	1.56 µM (inactive)	0.562 µM (active)	1.96 µM (inactive)	2.14 µM (inactive)	1.64 µM (inactive)
COC(=O)C1=C(C)NC(C)=C([N+](=O)[O-])C1c1cccc(NO)c1 (centres undefined)	4.48 µM (inactive)	2.06 µM (inactive)	6.65 µM (inactive)	5.22 µM (inactive)	2.84	8.38 µM (inactive)	3.44 µM (inactive)		3.46 µM (inactive)	5.01 µM (inactive)	3.86 µM (inactive)	4.75 µM (inactive)	4.34 µM (inactive)	3.79 µM (inactive)	6.55 µM (inactive)	3.5 µM (inactive)	3.27 µM (inactive)	6.67 µM (inactive)	4.16 µM (inactive)	2.94 µM (inactive)
COc1cc2c(cc1OC)C(=O)N1CCCC1C(=O)S2 (centres undefined)	> 100 µM (inactive)	> 100 µM (inactive)	> 100 µM (inactive)	> 100 µM (inactive)	> 100		> 100 µM (inactive)	92.7 µM (inactive)	> 100 µM (inactive)	19.9 µM (inactive)	> 100 µM (inactive)	> 100 µM (inactive)	> 100 µM (inactive)	> 100 µM (inactive)	35.6 µM (inactive)	> 100 µM (inactive)				
CCCCCCCCOCC1S(=O)(=O)OCCOS1(=O)=O	> 100 µM (inactive)	> 100 µM (inactive)	> 100 µM (inactive)	> 100 µM (inactive)	> 100	> 100 µM (inactive)	> 100 µM (inactive)		> 100 µM (inactive)	> 100 µM (inactive)	> 100 µM (inactive)	> 100 µM (inactive)	> 100 µM (inactive)	> 100 µM (inactive)	> 100 µM (inactive)	> 100 µM (inactive)	> 100 µM (inactive)	> 100 µM (inactive)	> 100 µM (inactive)	> 100 µM (inactive)
O=C1O[C@H]2C3C4CCC(C4[C@@H]2I)[C@H]13 (some centres undefined)	> 100 µM (inactive)	> 100 µM (inactive)	> 100 µM (inactive)	> 100 µM (inactive)	> 100	> 100 µM (inactive)	> 100 µM (inactive)		> 100 µM (inactive)	> 100 µM (inactive)	> 100 µM (inactive)	> 100 µM (inactive)	> 100 µM (inactive)	> 100 µM (inactive)	> 100 µM (inactive)	> 100 µM (inactive)	> 100 µM (inactive)	> 100 µM (inactive)	> 100 µM (inactive)	> 100 µM (inactive)
COc1cc2c(cc1OCc1ccccc1)NC(=O)[C@@H]1CCCN1C2=O	> 100 µM (inactive)	> 100 µM (inactive)	> 100 µM (inactive)	> 100 µM (inactive)	> 100	> 100 µM (inactive)	> 100 µM (inactive)		> 100 µM (inactive)	58.9 µM (inactive)	> 100 µM (inactive)	> 100 µM (inactive)	> 100 µM (inactive)	> 100 µM (inactive)	> 100 µM (inactive)	> 100 µM (inactive)	> 100 µM (inactive)	> 100 µM (inactive)	> 100 µM (inactive)	> 100 µM (inactive)
CC1CC2(OC2C)C(=O)OC2CCN(C)C/C=C(/COC(=O)C1(C)O)C2=O (centres undefined)	> 100 µM (inactive)	> 100 µM (inactive)	> 100 µM (inactive)	> 100 µM (inactive)	> 100	> 100 µM (inactive)	> 100 µM (inactive)		> 10 µM (inactive)	> 100 µM (inactive)	> 100 µM (inactive)	> 100 µM (inactive)	> 100 µM (inactive)	> 100 µM (inactive)	> 100 µM (inactive)	> 100 µM (inactive)	> 100 µM (inactive)	> 100 µM (inactive)	> 100 µM (inactive)	> 100 µM (inactive)
CN(C)CC1CCC/C(=C\c2ccc(OC(=O)c3ccc(Cl)cc3)cc2)C1=O (centres undefined)	0.867 µM (active)	1.97 µM (inactive)	3.36 µM (inactive)	1.5 µM (inactive)	1.57	2.19 µM (inactive)	1.68 µM (inactive)		0.661 µM (active)	2.23 µM (inactive)	2.38 µM (inactive)	2.14 µM (inactive)	2.34 µM (inactive)	3.84 µM (inactive)	3.3 µM (inactive)	0.493 µM (active)	0.757 µM (active)	2.39 µM (inactive)	2.12 µM (inactive)	6.04 µM (inactive)
Nc1nc(-c2ccc3ccccc3c2)cc(-c2cc(-c3ccc4ccccc4c3)nc(N)n2)n1	> 100 µM (inactive)	> 100 µM (inactive)	> 100 µM (inactive)	> 100 µM (inactive)	> 100	> 100 µM (inactive)	> 100 µM (inactive)		> 100 µM (inactive)	> 100 µM (inactive)	> 100 µM (inactive)	> 100 µM (inactive)	75.3 µM (inactive)	> 100 µM (inactive)	> 100 µM (inactive)	> 100 µM (inactive)	> 100 µM (inactive)	> 100 µM (inactive)	> 100 µM (inactive)	> 100 µM (inactive)
O=C1OC(=O)c2c1c(-c1ccccc1)cn2-c1ccc(Cl)cc1	> 100 µM (inactive)	10.6 µM (inactive)	> 100 µM (inactive)	87.3 µM (inactive)	45.3		8.28 µM (inactive)	> 100 µM (inactive)	15 µM (inactive)	24.7 µM (inactive)	83 µM (inactive)	> 100 µM (inactive)	41.1 µM (inactive)	> 100 µM (inactive)	1.64 µM (inactive)	48.1 µM (inactive)				
